Experimental data reported in PubChem BioAssay (NCI).
Values joined by “and” are separate entries in the source; they are usually repeats but may differ in a detail not shown here. Identical values can stand only once.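 Assay format: 96-well plates, 48-hour exposure. GI50 is the concentration that inhibits growth by half. TGI marks complete inhibition of growth.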

Experiments:
Assay in all cases: growth of human tumour cells (NCI), 48 h
HS 578T breast = system: HS 578T breast
IGROV1 ovarian = system: IGROV1 ovarian
KM12 colon = system: KM12 colon
MDA-MB-231 breast = system: MDA-MB-231 breast
NCI/ADR-RES ovarian = system: NCI/ADR-RES ovarian
SK-MEL-2 melanoma = system: SK-MEL-2 melanoma
SN12C renal = system: SN12C renal
SW-620 colon = system: SW-620 colon
T-47D breast = system: T-47D breast
UO-31 renal = system: UO-31 renal

Row | Compound | GI50 (HS 578T breast) | GI50 (IGROV1 ovarian) | TGI (IGROV1 ovarian) | GI50 (KM12 colon) | TGI (KM12 colon) | GI50 (MDA-MB-231 breast) | TGI (MDA-MB-231 breast) | GI50 (NCI/ADR-RES ovarian) | TGI (NCI/ADR-RES ovarian) | GI50 (SK-MEL-2 melanoma) | TGI (SK-MEL-2 melanoma) | GI50 (SN12C renal) | TGI (SN12C renal) | GI50 (SW-620 colon) | TGI (SW-620 colon) | GI50 (T-47D breast) | TGI (T-47D breast) | GI50 (UO-31 renal) | TGI (UO-31 renal) | TGI (HS 578T breast)
1 | NC1(C(=O)N[C@@H](CCO)c2ccc(Cl)cc2)CCN(c2ncnc3[nH]ccc23)CC1 | 0.177 µM and 0.421 µM | 0.102 µM and 0.27 µM | > 100 µM | 0.927 µM and 2.78 µM | > 77.2 µM | > 3.44 µM and 41 µM | > 100 µM | > 100 µM | > 100 µM | > 4.51 µM and 16.3 µM | > 82.8 µM | 13.9 µM | > 100 µM | > 3.5 µM and 24.8 µM | > 100 µM | 0.167 µM and 0.439 µM | > 76.8 µM | 1.17 µM and 5.53 µM | > 5.24 µM and 72.1 µM | 
2 | CC(=O)ON=C1C=CC(=C(C#N)c2ccccc2)C=C1 | 3.51 µM | 1 µM | 6.9 µM | 0.357 µM | 1.71 µM | 2.63 µM | > 28.5 µM | 0.768 µM | 4.21 µM | 2.19 µM | 15.6 µM | 2.49 µM | 20.9 µM | 0.452 µM | 7.76 µM | 1.05 µM | 11.3 µM | 0.576 µM | 15.6 µM | > 31.3 µM
3 | COc1cc2c(cc1[N+](=O)[O-])C(=O)C(Br)(Br)CCC2 |  |  | 2.93 µM |  | 15.2 µM |  | 9.42 µM |  | 7.31 µM |  | 4.8 µM |  | 5.16 µM |  | 3.99 µM |  | > 27.2 µM |  | 3.23 µM | 23.2 µM
4 | COc1ccc(/C=C/C(=O)/C=C(O)/C=C/c2ccc(OC)c(OC)c2)cc1OC | 3.68 µM | 3.43 µM | > 100 µM | 2.84 µM | > 100 µM | 6.19 µM | > 100 µM | 3.86 µM | > 100 µM | 13.8 µM | 63.1 µM | 3.5 µM | 90.9 µM | 1.85 µM | > 100 µM | 76.9 µM | > 100 µM | 5.27 µM | > 100 µM | > 100 µM
5 | O=C(CN1CCN(C(=O)c2ccco2)CC1)Nc1ccc(Cl)cc1C(=O)c1ccccc1Cl | 10.8 µM | 4.23 µM | 17.6 µM | 7.33 µM | 20.9 µM | 9.51 µM | 46.1 µM | 10 µM | 43.8 µM | 3.14 µM | 17.5 µM | 14.6 µM | 44.7 µM | 12 µM | 30.6 µM | 2.32 µM | 15.4 µM | 2.28 µM | 14.9 µM | 33 µM
6 | CO/C(=C1/NC(=O)C(Cc2ccc(O)c(Br)c2)N(C)C(=O)C(C)NC(=O)CCC/C=C(\C)CCC(C)OC1=O)c1ccccc1 (centres undefined) | 0.0225 µM | 0.0199 µM | 0.0465 µM | 0.0784 µM | 19.2 µM | 0.0348 µM | 6.58 µM | 0.0566 µM | 18.1 µM |  | 0.0469 µM | 0.0695 µM | > 100 µM | 0.0146 µM | 33.3 µM | 0.0354 µM | 1.34 µM | 0.0192 µM | 0.0458 µM | 0.0553 µM
7 | c1ccc(CC(Nc2cccnc2)c2ccccc2)cc1 (centres undefined) |  |  | > 100 µM |  | 70.2 µM |  | 48.7 µM |  | 68.2 µM |  | 36 µM |  | 50.8 µM |  | > 100 µM |  | > 100 µM |  | 45 µM | 95.2 µM
8 | CC[C@@H](C)/C=C(C)/C=C/C(=O)c1c(O)c(-c2ccc(O)cc2)cn(OC2CC(=O)CCC(C)OC(=O)CC2O)c1=O (some centres undefined) | 2.36 µM | 0.316 µM | 4.66 µM | 1.56 µM | 14.7 µM | 0.85 µM | 24.3 µM | 0.286 µM | 3.03 µM | 0.489 µM | 15.6 µM | 0.445 µM | 13.8 µM | 0.562 µM | 16.4 µM | 0.383 µM | 15.3 µM | 0.255 µM | 1.92 µM | > 67.2 µM
9 | Cc1cc(-c2cc(OC(=O)c3ccccc3)ccc2Cl)cc2nnc(Nc3ccc(OCCN4CCCC4)cc3)nc12 | 1.58 µM | 1.76 µM | 3.78 µM | 1.84 µM | 3.42 µM | 1.05 µM | 2.31 µM | 1.86 µM | 4.1 µM | 1.78 µM | 3.45 µM | 1.49 µM | 3.1 µM | 0.265 µM | 0.571 µM | 1.57 µM | 3.55 µM | 1.19 µM | 2.44 µM | 3.94 µM
10 | COc1c(B(O)O)cccc1-c1nc2c(F)cc3n[nH]c(C)c3c2c2c1CCCC2 | 0.118 µM | 1.12 µM | > 50 µM | 1.31 µM | > 50 µM | 0.0412 µM | > 50 µM | 1.48 µM | > 50 µM | 1.45 µM | 3.6 µM | 0.854 µM | > 50 µM | 0.727 µM | > 50 µM | 1.33 µM | > 23.2 µM | 0.225 µM | 3.07 µM | > 50 µM
11 | O=C1OCC2=C1C(c1cccc(Cl)c1)c1cc3c(cc1N2CCO)CCC3 (centres undefined) | 0.0453 µM | 0.121 µM | 15.6 µM | 0.0402 µM | 4.05 µM | 0.217 µM | 2.21 µM | 0.0289 µM | 0.108 µM | 0.0323 µM | 0.441 µM | 0.0759 µM | 11.9 µM | 0.0369 µM | 16.4 µM | 0.0414 µM | 23.2 µM | 0.0515 µM | 14.2 µM | 22.2 µM
12 | O=C(N/N=C/c1ccncc1)c1ccc(F)cc1 | > 40 µM | > 40 µM | > 40 µM | > 40 µM | > 40 µM | > 40 µM | > 40 µM | > 40 µM | > 40 µM | > 40 µM | > 40 µM | > 40 µM | > 40 µM | > 40 µM | > 40 µM | > 40 µM | > 40 µM | > 40 µM | > 40 µM | > 40 µM
13 | CC[C@@]1(O)C(=O)OCc2c1cc1n(c2=O)Cc2c-1nc1cc(F)c(C)c3c1c2[C@@H](NC(=O)CO)CC3 | 1.25 µM | 0.0449 µM | 1.92 µM | 0.149 µM | > 100 µM | 0.511 µM | > 100 µM | 0.0564 µM | 3.98 µM | 0.318 µM | 2.63 µM | < 0.01 µM |  | < 0.01 µM | > 44.2 µM | < 0.01 µM |  | 0.019 µM | 0.485 µM | > 100 µM
14 | CCOc1ccc2c(c1)C(=O)c1c-2n(CCCN=[N+]=[N-])c(=O)c2cc([N+](=O)[O-])ccc12 | 45.9 µM | 0.195 µM | 16.1 µM | 23.9 µM | > 100 µM | 45 µM | > 100 µM | 3.91 µM | > 100 µM | 14.4 µM | 38.2 µM | 5.3 µM | > 100 µM | 3.42 µM | > 100 µM | 0.102 µM | 1.24 µM | 2.23 µM | 11.5 µM | > 100 µM
15 | COc1ncc(-c2ccc3nccc(C#CCCCCC(=O)NO)c3c2)cc1NS(=O)(=O)c1ccc(F)cc1F | 0.0307 µM | < 0.0146 µM | 0.559 µM | 0.18 µM | 12.1 µM | 0.998 µM | 7.85 µM | 3.59 µM | 30 µM | 0.106 µM | 1.77 µM |  | 17.5 µM | 0.158 µM | 3.9 µM |  | 0.055 µM | 0.0737 µM | 4 µM | 1.17 µM
16 | O=C(Nc1cccc(-n2cc(-c3ccncc3)c(-c3ccc(Cl)c(O)c3)n2)c1)Nc1ccc(Cl)c(Cl)c1 | 0.785 µM | 1.77 µM | > 32.5 µM | 1.01 µM | 4.47 µM | 1.18 µM | 8.33 µM | 2.74 µM | > 32.5 µM | 1.03 µM | 2.64 µM | 1.31 µM | > 32.5 µM | 1.46 µM | > 32.5 µM | 1.55 µM | 17.9 µM | 1.25 µM | > 32.5 µM | 3.15 µM
17 | COc1cc(N2CCC(N)CC2)ccc1Nc1ncc(Cl)c(-c2c[nH]c3ccccc23)n1 | 0.741 µM | 0.405 µM | 2.23 µM | 0.302 µM | 1.14 µM | 1.22 µM | 2.79 µM | 1.49 µM | 4.11 µM | 0.23 µM | 0.982 µM | 0.869 µM | 3.76 µM | 0.183 µM | 1.44 µM | 1.78 µM | 4.72 µM | 0.339 µM | 2.12 µM | 3.87 µM
18 | COc1cc(C(=O)NN=C2c3ccccc3-c3ccccc32)cc(OC)c1OC | 3.5 µM | 3.47 µM | 32.9 µM | 2.15 µM | > 100 µM | 2.93 µM | 20 µM | 2.06 µM | 11.7 µM | 2.84 µM | 12.7 µM | 4.48 µM | 41.2 µM | 2.53 µM | > 100 µM | 3.9 µM | 65.5 µM | 4.02 µM | 75.3 µM | 26.3 µM
19 | CN1CCN(CCC=C2c3ccccc3Sc3ccc(S(=O)(=O)N(C)C)cc32)CC1 | 3.4 µM and 3 µM | 5.13 µM and 8.26 µM | 23.3 µM and 25.7 µM | 3.96 µM and 4.68 µM | 24.3 µM and 16.4 µM | 1.82 µM and 4.4 µM | 4.43 µM and 16.8 µM | 5.5 µM and 13.2 µM | 26.5 µM and 37.5 µM | 2.37 µM and 2.48 µM | 4.32 µM and 6.09 µM | 6.23 µM and 13.8 µM | 34.6 µM and > 49.3 µM | 3.58 µM and 2.85 µM | 19.9 µM and 8.62 µM | 1.52 µM and 3.85 µM | 3.42 µM and 16.7 µM | 3.46 µM and 4.23 µM | 25.1 µM and 21.1 µM | 23.2 µM and 14.8 µM
